# In patent US7585639B1, “Methods for modulating ATP-binding cassette transmembrane reporter protein expression” (Trustees of Dartmouth College, priority 1999, dated 2009):
# Legend:
# human ΔF508 CFTR = test: Chloride currents in MDCK-derived cell line stably transfected with human ΔF508 CFTR cDNA (CMV promoter); format: cell-based; details: MDCK cell line expressing human ΔF508 CFTR; statistically significant
# Procedure: (§1) The ability of Dox to increase functional expression of ΔF508 CFTR in a similar manner was then assessed. In initial experiments, the effects of Dox on ΔF508 CFTR expression were examined in a canine kidney MDCK-derived cell line that had been stably transfected with a human ΔF508 CFTR cDNA construct expressed under the control of a CMV promoter. As controls, the effects of Dox on CFTR expression in the wild-type parental MDCK-C7 cells from which the stable cell line was derived and an MDCK-derived cell line stably transfected with GFP-tagged wild-type human CFTR also under the control of the CMV promoter were examined. Dox had no effect on chloride currents in either controls.
# [1] = system: MDR4, MDR10, MDR29 and parental MDCK-C7 cells; details: dog, 3 days
# Procedure: Cells were plated in 96 well plates (Fisher, Medford, Mass.) at a density of 1000 cells per well. Twenty-four hours after plating, the cells were dosed with 0-10 μM Dox in serum-free media as described above. The cells were incubated for three days and assayed using the CellTiter 96 AQueous One Solution Reagent (Promega Corp., Madison, Wis.) using the manufacturer's instructions. The data were collected and analyzed using the Softmax software. A cytotoxicity assay was also performed with cisplatin (0-30 μM) as described above.
# CFTR [2] = test: Trans-epithelial chloride currents, Ussing chamber assay, T84 cells; format: cell-based
# Procedure: (§2) The correlation between increased levels and increased functional CFTR in the cell membrane was also examined either by measuring chloride permeability using MQAE fluorescence or trans-epithelial chloride currents using the Ussing chamber assay. […] Dox increased total cellular CFTR protein levels by 1.6- to 2-fold in T84 cells, and levels were maximal at approximately 18 to 24 hours after treatment. […] Dox increased the amount of cell surface-detectable CFTR by approximately 2.5- to 3-fold in these cells. Dox treatment of T84 cells was also determined to increase CFTR-associated chloride currents by approximately 2.1-fold as measured by the Using chamber assay and to increase chloride permeability by approximately 2-fold as measured by MQAE fluorescence in these cells.
# MDCK-C7 cells = test: Chloride currents in wild-type parental MDCK-C7 cells (control); format: cell-based, canine
# Procedure: as §1
# GFP-Pgp = details: MDR29 cells
# CFTR [3] = test: Chloride permeability by MQAE fluorescence, T84 cells; format: cell-based
# Procedure: as §2
# [4] = system: GFP-tagged wild-type human CFTR; test: Chloride currents in MDCK-derived cell line stably transfected with GFP-tagged wild-type human CFTR (control); format: cell-based; details: MDCK cells with GFP-tagged wild-type human CFTR
# Procedure: as §1
# CFTR protein levels = CFTR protein levels by western blotting using anti-CFTR antibodies in T84 cells; format: cell-based
# Procedure: as §2
# [5] = system: wild-type CFTR mRNA expression; test: CFTR mRNA expression in HT-29 human colon cell line; format: cell-based; details: HT-29 cells
# Procedure: Experiments were performed which identified specific agents that increase functional cell surface expression of the ΔF508 CFTR protein. […] However, a rapid increase in CFTR mRNA to 1.5-fold over controls was seen by 48 hours and remained high through the end of the experiment.
SMILES,increase in chloride currents (human ΔF508 CFTR),"EC50 for cytotoxicity (colony formation), MDR cell lines relative to parental cell line [1]",increase in CFTR-associated chloride currents (CFTR [2]),effect on chloride currents (MDCK-C7 cells),membrane Pgp levels (GFP-Pgp; 24-72 hour period after treatment),cellular GFP levels (GFP-Pgp; compared with Pgp membrane levels),increase in chloride permeability (CFTR [3]),effect on chloride currents [4],mature CFTR protein levels (CFTR protein levels),effect on CFTR mRNA expression ([5]; between 0 and 36 hours after treatment),"increase in CFTR mRNA over controls ([5]; by 48 hours, remained high through end of experiment) [fold]","CFTR mRNA expression over a 72 hour period ([5]; single non-toxic treatment, over 72 hours)"
"COc1cccc2c1C(=O)c1c(O)c3c(c(O)c1C2=O)C[C@@](O)(C(=O)CO)C[C@@H]3O[C@H]1C[C@H](N)[C@H](O)[C@H](C)O1 [Dox, doxorubicin]",approximately 1.7 fold,2.5-3.5 fold,approximately 2.1 fold,no effect,progressive and substantial increase,increased earlier and to a greater extent,approximately 2 fold,no effect,–,–,–,–
"CO[C@@]12[C@H](COC(N)=O)C3=C(C(=O)C(C)=C(N)C3=O)N1C[C@@H]1N[C@@H]12 [MMC, mitomycin C]",–,–,approximately 1.2 fold,–,–,–,–,–,significantly increased,Little or no effect,1.5,significant increase
